The record followed here is US7531555B2, “Compositions and methods for selective inhibition of nicotine acetylcholine receptors” (University of Florida Research Foundation, Inc., priority 2003, dated 2009).

The term IC50 denotes the concentration at which inhibition is half-maximal.

One assay deals with T1, Human α3β2α5 (Homo sapiens, UniProt P17787+P30532+P32297).
T1 construct: expressed in transfected cells; host or cells: Xenopus laevis oocytes injected with subunit cRNAs
As to the kind of experiment: Voltage clamp of Xenopus oocytes expressing human α3β2α5 nAChR. In kind it is cell-based. As for the experimental part: Mature (>9 cm) female Xenopus laevis African frogs (NASCO, Ft. Atkinson, Wis.) were used as a source of oocytes. Prior to surgery, frogs were anesthetized by placing the animal in a 1.5 g/l solution of MS222 (3-aminobenzoic acid ethyl ester) for 30 minutes. Oocytes were removed from an incision made in the abdomen.
In order to remove the follicular cell layer, harvested oocytes were treated with 1.25 mg/ml collagenase from Worthington Biochemical Corporation (Freehold, N.J.) for 2 hours at room temperature in calcium-free Barth's solution (88 mM NaCl, 10 mM HEPES pH 7.6, 0.33 mM MgSO4, 0.1 mg/ml gentamicin sulfate). Subsequently, stage 5 oocytes were isolated and injected with 50 nl (5-20 ng) each of the appropriate subunit cRNAs. Recordings were made 2 to 15 days after injection.
After linearization and purification of cloned cDNAs, RNA transcripts were prepared in vitro using the appropriate mMessage mMachine kit from Ambion Inc. (Austin, Tex.).
Electrophysiology. The majority of experiments were conducted using OpusXpress 6000A (Axon Instruments, Union City Calif.). OpusXpress is an integrated system that provides automated impalement and voltage clamp of up to eight oocytes in parallel. Cells were automatically perfused with bath solution, and agonist solutions were delivered from a 96-well plate. Both the voltage and current electrodes were filled with 3 M KCl. The agonist solutions were applied via disposable tips, which eliminated any possibility of cross-contamination. Drug applications alternated between ACh controls and experimental applications. Flow rates were set at 2 ml/min for experiments with α7 receptors and 4 ml/min for other subtypes. Cells were voltage-clamped at a holding potential of −60 mV. Data were collected at 50 Hz and filtered at 20 Hz. Agonist applications were 12 seconds in duration followed by 181-second washout periods for α7 receptors and 8 seconds with 241-second wash periods for other subtypes. For some experiments, particularly under conditions where residual inhibition precluded making repeated measurements from single cells (see below), manual oocyte recordings were made as previously described (Papke and Papke Br J of Pharmacol, 2002, 137:49-61). […]
Experimental protocols and data analysis. […] In other experiments (Papke et al. J. Neurochem., 2000, 75:204-216; Papke and Papke Br J of Pharmacol, 2002, 137:49-61) these concentrations were determined to be the EC74, EC15, EC22, EC17, EC40, EC70, EC55, EC70 and EC100, respectively. […]
Responses to experimental drug applications were calculated relative to the preceding ACh control responses in order to normalize the data, compensating for the varying levels of channel expression among the oocytes. […]

For assay [1], the system named is mice. As to the kind of experiment: Hot-plate test, blockade of nicotine-induced antinociception. It is filed as in vivo. How it is done: (§1) Animals. Male ICR mice (20-25 g) obtained from Harlan Laboratories (Indianapolis, Ind.) were used throughout the study. Animals were housed in groups of six and had free access to food and water. Adult, male Long-Evans rats (350-460 g), obtained from Harlan (Dublin, Va.), were individually housed in a temperature-controlled (20-22° C.) environment with a 12-hour light-dark cycle (lights on at 7 a.m.). Rats were maintained within the indicated weight range by restricted post-session feeding and had ad libitum water in their home cages. Rats were drug-naive at the beginning of the study. Animals were housed in an AALAC approved facility and the study was approved by the Institutional Animal Care and Use Committee of Virginia Commonwealth University.
2. Hot-plate Test. Mice were placed into a 10 cm wide glass cylinder on a hot plate (Thermojust Apparatus) maintained at 55.0° C. Two control latencies at least 10 minutes apart were determined for each mouse. […] Antinociceptive response was calculated as percent maximum possible effect (% MPE), where % MPE=[(test-control)/(40-control)×100]. The reaction time was scored when the animal jumped or licked its paws. […]
The doses of nicotine used in the different tests represent approximately an ED84 (Effective dose 84%) which were determined from previous works (Damaj et al. Psychopharmacology (Berl), 1995, 117:67-73). […]
On the technique in general: Hot-plate and tail-flick tests time the reaction to a heat stimulus.

Assay [2] relates to mice. As to the kind of experiment: Locomotor activity, nicotine-induced hypomotility. The following applies: for Locomotor Activity # Interrupts (Mean ± SEM): s.c. In kind it is in vivo. How it is done: as §1
Locomotor activity. Mice were placed into individual Omnitech photocell activity cages (28×16.5 cm) immediately after s.c. administration of either 0.9% saline or nicotine (6.2 μmol/kg or 1 mg/kg) and were allowed to acclimate for 10 minutes. Interruptions of the photocell beams (two banks of eight cells each) were then recorded for the next 10 minutes. Data were expressed as percentage of depression where % depression=[1−(counts from nicotine-treated animals/counts from vehicle-treated animals)]×100. Mice were pretreated s.c. with either saline or TMPH 10 minutes before nicotine.
Eight to twelve mice were tested in each treatment group and each animal was tested only once.
Statistical analysis. Statistical analysis of all analgesic and in vivo studies was performed using either t-test or analysis of variance (ANOVA) with Tukey's test post hoc test when appropriate. All differences were considered significant at p<0.05. AD50 values with 95% CL for behavioral data were calculated by unweighted least-squares linear regression as described by Tallarida and Murray (Tallarida and Murray Manual of Pharmacological Calculations with Computer Programs. 1987, Springer-Verlag, New York).

[3] abbreviates: s.c. injection, at the indicated doses and times.

Like-named read-outs stand apart in the source and are kept apart here.

T1 sequence (P32297 32-505): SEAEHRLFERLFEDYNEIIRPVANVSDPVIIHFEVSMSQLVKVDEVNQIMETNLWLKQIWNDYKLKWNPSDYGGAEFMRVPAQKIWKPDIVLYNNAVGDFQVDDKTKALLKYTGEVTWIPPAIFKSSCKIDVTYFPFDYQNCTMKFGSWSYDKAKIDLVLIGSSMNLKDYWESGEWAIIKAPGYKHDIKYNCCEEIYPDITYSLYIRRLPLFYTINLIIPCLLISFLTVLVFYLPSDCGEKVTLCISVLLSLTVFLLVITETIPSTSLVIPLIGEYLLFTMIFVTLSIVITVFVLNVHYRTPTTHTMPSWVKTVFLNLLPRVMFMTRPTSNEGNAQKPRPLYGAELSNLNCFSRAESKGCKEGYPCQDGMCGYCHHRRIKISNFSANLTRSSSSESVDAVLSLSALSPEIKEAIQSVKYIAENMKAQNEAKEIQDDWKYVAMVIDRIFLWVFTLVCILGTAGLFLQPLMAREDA
T1 sequence (P17787 26-502): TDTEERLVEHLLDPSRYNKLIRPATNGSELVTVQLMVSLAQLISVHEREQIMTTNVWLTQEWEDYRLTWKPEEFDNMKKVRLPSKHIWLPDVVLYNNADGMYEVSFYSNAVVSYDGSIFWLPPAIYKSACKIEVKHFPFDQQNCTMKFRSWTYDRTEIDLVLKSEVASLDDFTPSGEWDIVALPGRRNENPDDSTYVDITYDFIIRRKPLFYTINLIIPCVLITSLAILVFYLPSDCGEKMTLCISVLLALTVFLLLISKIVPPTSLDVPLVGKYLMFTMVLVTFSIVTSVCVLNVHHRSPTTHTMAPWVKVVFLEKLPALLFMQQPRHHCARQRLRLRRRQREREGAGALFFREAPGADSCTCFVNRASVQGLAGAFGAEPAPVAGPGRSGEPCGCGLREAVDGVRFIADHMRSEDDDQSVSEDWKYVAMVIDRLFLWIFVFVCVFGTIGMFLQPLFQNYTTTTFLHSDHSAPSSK
T1 sequence (P30532 23-468): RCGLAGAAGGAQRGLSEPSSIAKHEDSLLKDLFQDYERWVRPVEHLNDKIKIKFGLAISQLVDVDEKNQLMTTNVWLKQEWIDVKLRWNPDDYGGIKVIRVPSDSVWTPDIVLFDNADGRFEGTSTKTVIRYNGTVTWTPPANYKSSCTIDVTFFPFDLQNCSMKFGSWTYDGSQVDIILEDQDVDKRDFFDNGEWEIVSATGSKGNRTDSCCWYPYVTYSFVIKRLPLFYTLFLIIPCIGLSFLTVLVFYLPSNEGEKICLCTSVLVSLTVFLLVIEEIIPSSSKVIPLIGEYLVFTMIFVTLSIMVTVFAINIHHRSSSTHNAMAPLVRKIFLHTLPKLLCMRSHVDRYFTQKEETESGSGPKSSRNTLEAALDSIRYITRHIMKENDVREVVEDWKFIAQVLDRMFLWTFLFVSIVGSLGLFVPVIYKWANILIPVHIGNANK

For the compound `CCCCCCC(=O)OC1CC(C)(C)NC(C)(C)C1` [TMPH, 2,2,6,6-tetramethylpiperidin-4-yl heptanoate], the half-maximal inhibitory concentration (IC50) turned out to be 0.43 ± 0.18 µM on Human α3β2α5 (decrease in net charge, 1 μM ACh co-applied with TMPH, read-out: IC50 (area)); 1.1 µM at Human α3β2α5 (decrease in peak current amplitude, 1 μM ACh co-applied with TMPH, read-out: IC50 (peak)); 0.75 ± 0.2 µM on Human α3β2α5 (inhibition still present after 5-minute wash, read-out: IC50 (recovery)). In addition, the “IC50 recovery/IC50 net charge” value on Human α3β2α5 (ratio) turned out to be 1.7. For the same compound, the “time at which nicotine's effect recovered fully to pre-treatment value, hot-plate” value with mice [1] (pretreatment with TMPH 5 mg/kg) is 60 min. For the same compound, in the assay with mice [1] (setting [3]), the “antinociception by TMPH itself, hot-plate” value is “did not cause antinociception”. Further, the “effect on hypomotility induced by nicotine” value with mice [2] (TMPH 20 mg/kg s.c. 15 minutes prior to nicotine (1.5 mg/kg)) was “failed to significantly reduce”. Also, the “Locomotor Activity # Interrupts (Mean ± SEM)” value was 397 ± 170 # Interrupts with mice [2] (TMPH (20 mg/kg)/Nicotine (1.5 mg/kg)) and 2031 ± 160 # Interrupts in the assay with mice [2] (TMPH (20 mg/kg)/Saline). In addition, the “blockade of nicotine-induced hypomotility” value with mice [2] (TMPH @ 20 mg/kg) was 0% blockade @ 20. Moreover, the “effect of TMPH by itself on locomotor activity” value in the assay with mice [2] (setting [3]) was “did not have a significant effect”.
